# Source: patent publication US20250082654A1, “AZD3355 (LESOGABERAN) FOR TREATMENT AND PREVENTION OF NONALCOHOLIC STEATOHEPATITIS (NASH), LIVER FIBROSIS, AND OTHER LIVER CONDITIONS” (Icahn School of Medicine at Mount Sinai, priority 2018, published 2025)
# Experiments:
# [1] = system: phHSCs; test: Cell apoptosis assay (caspase-3/7 activity); format: cell-based, human; conditions: any dosage, 72 hours
# Experimental: (§1) At the beginning of each experiment, stellate cells (LX-2 cells or phHSCs) were serum-starved overnight in DMEM supplied with 0.1% BSA (without antibiotic) to synchronize metabolic activities of the cells. The cells were then exposed to different working concentration of either AZD3355 or sorafenib for 24, 48 and 72 hours.
# (§2) 5,000 LX-2 cells or 10,000 phHSCs were plated per well in 96-well clear bottom black plates. After overnight serum starvation in DMEM supplemented with 0.1% BSA (without antibiotic) the cells were exposed to AZD3355 at indicated concentration. For positive apoptotic control the cells were treated with 3% DMSO. After 72 hours of drug exposure the fluorescence signal of Caspase-3 and -7 activities were measured in Synergy HT (BioTek Instrument Inc., VT) spectrofluorometer by using Apo-ONE Homogeneous Caspase-3/7 Assay kit (Promega, WI) according to manufacturer's protocol.
# [2] = system: LX-2 cells; test: Cell apoptosis assay (caspase-3/7 activity); format: cell-based, human; conditions: any dosage, 72 hours
# Experimental: as §1, §2
# [3] = NASH mouse model, body weight; format: in vivo; conditions: male and female NASH model mice, 12-week treatment
# Experimental: The experimental protocol was reviewed and approved by the Institutional Animal Care and Use Committee (IACUC) at Icahn School of Medicine at Mount Sinai, NY. Male and Female C57BL/6J mice (age: 6 weeks; weight: 20-25 g) were purchased from Jackson Laboratories (Farmington, CT). Animals were housed in a 12 hours light—12 hours dark cycle in the animal facility at Icahn School of Medicine at Mount Sinai, NY and handled following guidelines for the care and use of laboratory animals. Male and female mice were maintained in separate cages.
# Carbon tetrachloride (CC14) was purchased from Sigma-Aldrich, MO. CC14 was freshly dissolved in corn oil at final concentration of 5% before injection. […]
# Western diet containing 21.2% fat (42% Kcal), 41% sucrose and 1.25% cholesterol by weight was purchased from Envigo, WI (Teklad Custom diet Cat #TD.120528). […] During change of food and water we have been measured the amount of food and water intake and the data was collected.
# Four separate groups of mice were given either 0.5% methylcellulose (as Vehicle) or AZD3355 at 10 mg/kg (low dose) body weight of mice or 30 mg/kg (high dose) body weight of mice by twice daily (BID (5 days/week)) and OCA at 30 mg/kg body weight of mice by daily (QD (5 days/week)) through oral route for up to next 12 weeks (week 13 to week 24). […] All animals were closely monitored the health conditions and behavior.
# [4] = system: NASH model mice; test: NASH mouse model, histopathological scoring of liver sections; format: in vivo; conditions: for Hepatocyte ballooning ± SE: score 0-2; for Portal inflammation ± SE / Lobular Inflammation ± SE / Steatosis ± SE: score 0-3; for Fibrosis Stage ± SE: score 0-4; for NAFLD activity score (NAS) ± SE: score 0-8
# Experimental: Four separate groups of mice were given either 0.5% methylcellulose (as Vehicle) or AZD3355 at 10 mg/kg (low dose) body weight of mice or 30 mg/kg (high dose) body weight of mice by twice daily (BID (5 days/week)) and OCA at 30 mg/kg body weight of mice by daily (QD (5 days/week)) through oral route for up to next 12 weeks (week 13 to week 24). Them last group of mice were not given any drug or vehicle treatment, as No Tx—24 weeks and maintained in parallel with treatment/vehicle groups. Usually all doses were given at early morning and the second daily dose of AZD3355 at evening (10 hours of intervals). All animals were closely monitored the health conditions and behavior.
# A piece of tissue from large liver lobe was fixed in 10% Formalin Buffered (Astral Diagnostics Incorporated NJ) embedded in paraffin and microtome sectioning were performed. Slides containing tissue sections were baked at 60° C. for 1 hour and re-hydrated through xylene followed by graded ethanol (100%, 95%, 85% and 70%) into distilled water and processed in either Picrosirius red/Fast green or hematoxylin and eosin staining.
# A total of 2 sections/animal were stained with H&E staining performed by standard protocol.
# Steatosis, hepatocyte ballooning, lobular inflammation, portal inflammation and fibrosis of picroserious red/fast green and H&E stained liver section were scored according to the NASH Clinical Research Network (NASH CRN) scoring system in a blinded fashion by an expert hepato-pathologist in Icahn School of Medicine at Mount Sinai. NAFLD activity score (NAS) was calculated according to Brunt criteria and range from 0-8. NAS was calculated by the sum of scores of steatosis (0-3), hepatocyte ballooning (0-2) and lobular inflammation (0-3). NAS score of >5.0 strongly correlated with “definite-NASH” whereas <3 correlated with “not-NASH”. Fibrosis (0-4) or portal inflammation (0-3) scores were assessed separately and not included in NAS.
# [5] = system: human liver slices; test: Liver slice assay, histopathology and H&E staining; format: cell-based; conditions: 24 hours
# Experimental: Ten human liver pieces were collected from the Mount Sinai biorepository. The samples were prepared by coring the liver with 8 mm cylindrical coring tools. The liver cores were kept in ice cold WE medium, with GlutaMAX supplemental. A liver core was then mounted on a specimen plate with cyanoacrylate adhesive. Liver slices (approximately 200 μm in thickness) were placed in ice cold Krebs-Henesleit buffer in the presence of carbogen gas. There was then a 1 hour pre-incubation in WE GlutaMAX media with gentamicin in 95% O2 and 5% CO2 at 37° C. in a humidified rocker chamber to restore ATP levels.
# The liver slices were then cultured in WE GlutaMAX media with gentamicin in 95% O2 and 5% CO2 at 37° C. in a humidified rocker chamber with slow 70 rpm rocking in the presence of AZD3355 in the amounts of 250 nM, 500 nM, 1000 nM, or 2000 nM, or sorafenib at 1000 nM., or control vehicle (saline water).
# After 24 hours, the tissue slices were harvested for either RNA isolation and quantitative PCR for measurements of Col1α1, TNFα, and IL-6 expression, or for histopathology and hematoxylin and eosin (H&E) staining as described in Example 3.
compound,measurement,setting,value
"NC[C@@H](F)C[PH](=O)O [AZD3355, [(2R)-3-amino-2-fluoropropyl] phosphinic acid]",apoptotic effect (caspase-3/7 activity),[1],no apoptotic effect
same,apoptotic effect (caspase-3/7 activity),[2],no apoptotic effect
same,body weight during treatment,[3],stable
same,Hepatocyte ballooning ± SE,"[4]; ♀ Mice, 10 mg/kg, vehicle 1.2 ± 0.1",1.3 ± 0.1
same,Portal inflammation ± SE,"[4]; ♀ Mice, 10 mg/kg, vehicle 1.6 ± 0.1",1.6 ± 0.1
same,Lobular Inflammation ± SE,"[4]; ♀ Mice, 10 mg/kg, vehicle 2.3 ± 0.1",2.5 ± 0.1
same,Steatosis ± SE,"[4]; ♀ Mice, 10 mg/kg, vehicle 2.5 ± 0.1",2.6 ± 0.1
same,Fibrosis Stage ± SE,"[4]; ♀ Mice, 10 mg/kg, vehicle 3.0 ± 0.1",3.1 ± 0.1
same,NAFLD activity score (NAS) ± SE,"[4]; ♀ Mice, 10 mg/kg, vehicle 6.1 ± 0.4",6.4 ± 0.4
same,Steatohepatitis Grade ± SE,"[4]; ♀ Mice, 10 mg/kg, vehicle 1.8 ± 0.2",2.1 ± 0.2
same,Hepatocyte ballooning ± SE,"[4]; ♀ Mice, 30 mg/kg twice daily, vehicle 1.2 ± 0.1",1.3 ± 0.1
same,Portal inflammation ± SE,"[4]; ♀ Mice, 30 mg/kg twice daily, vehicle 1.6 ± 0.1",2.0 ± 0.0
same,Lobular Inflammation ± SE,"[4]; ♀ Mice, 30 mg/kg twice daily, vehicle 2.3 ± 0.1",2.7 ± 0.1
same,Steatosis ± SE,"[4]; ♀ Mice, 30 mg/kg twice daily, vehicle 2.5 ± 0.1",2.3 ± 0.1
same,Fibrosis Stage ± SE,"[4]; ♀ Mice, 30 mg/kg twice daily, vehicle 3.0 ± 0.1",3.1 ± 0.1
same,NAFLD activity score (NAS) ± SE,"[4]; ♀ Mice, 30 mg/kg twice daily, vehicle 6.1 ± 0.4",6.4 ± 0.3
same,Steatohepatitis Grade ± SE,"[4]; ♀ Mice, 30 mg/kg twice daily, vehicle 1.8 ± 0.2",2.2 ± 0.2
same,Hepatocyte ballooning ± SE,"[4]; ♂ Mice, 10 mg/kg, vehicle 1.7 ± 0.1",1.7 ± 0.1
same,Portal inflammation ± SE,"[4]; ♂ Mice, 10 mg/kg, vehicle 2.0 ± 0.1",1.9 ± 0.0
same,Steatosis ± SE,"[4]; ♂ Mice, 10 mg/kg, vehicle 2.7 ± 0.1",2.7 ± 0.1
same,Lobular Inflammation ± SE,"[4]; ♂ Mice, 10 mg/kg, vehicle 2.8 ± 0.1",2.8 ± 0.1
same,Fibrosis Stage ± SE,"[4]; ♂ Mice, 10 mg/kg, vehicle 3.3 ± 0.1",3.2 ± 0.1
same,NAFLD activity score (NAS) ± SE,"[4]; ♂ Mice, 10 mg/kg, vehicle 7.2 ± 0.3",7.2 ± 0.3
same,Steatohepatitis Grade ± SE,"[4]; ♂ Mice, 10 mg/kg, vehicle 2.6 ± 0.2",2.7 ± 0.1
same,Hepatocyte ballooning ± SE,"[4]; ♂ Mice, 30 mg/kg twice daily, vehicle 1.7 ± 0.1",1.8 ± 0.1
same,Portal inflammation ± SE,"[4]; ♂ Mice, 30 mg/kg twice daily, vehicle 2.0 ± 0.1",2.0 ± 0.2
same,Steatosis ± SE,"[4]; ♂ Mice, 30 mg/kg twice daily, vehicle 2.7 ± 0.1",2.4 ± 0.1
same,Lobular Inflammation ± SE,"[4]; ♂ Mice, 30 mg/kg twice daily, vehicle 2.8 ± 0.1",2.6 ± 0.2
same,Fibrosis Stage ± SE,"[4]; ♂ Mice, 30 mg/kg twice daily, vehicle 3.3 ± 0.1",3.0 ± 0.0
same,NAFLD activity score (NAS) ± SE,"[4]; ♂ Mice, 30 mg/kg twice daily, vehicle 7.2 ± 0.3",6.8 ± 0.5
same,Steatohepatitis Grade ± SE,"[4]; ♂ Mice, 30 mg/kg twice daily, vehicle 2.6 ± 0.2",2.5 ± 0.2
same,liver cells viability (H&E),[5],did not change
